Measurements published in ChEMBL document CHEMBL3091304 (Bioorg Med Chem, 2013).
The source made the active and inactive calls. The calls are words filed in the database; no cut-off is given here.

Tests used:
[1] = target: Kappa-type opioid receptor (Cricetulus griseus) (UniProt G3HZR5); test: Displacement of [3H]U-69593 from kappa opioid receptor in CHO cells at 10 uM after 120 mins relative to control; format: cell-based
[2] = test system: Hepatocyte; test: Inhibition of UDP-glucuronosyltransferase in Sprague-Dawley rat hepatocytes assessed as morphine conversion to M3G at 5 to 10 uM incubated for 72 hrs prior to substrate addition measured after 2 hrs by HPLC analysis; format: cell-based
[3] = target: Mu-type opioid receptor (Homo sapiens) (UniProt P35372); conditions: HEK293, at 10 µM
Chain of Mu-type opioid receptor (Homo sapiens) (P35372 whole entry): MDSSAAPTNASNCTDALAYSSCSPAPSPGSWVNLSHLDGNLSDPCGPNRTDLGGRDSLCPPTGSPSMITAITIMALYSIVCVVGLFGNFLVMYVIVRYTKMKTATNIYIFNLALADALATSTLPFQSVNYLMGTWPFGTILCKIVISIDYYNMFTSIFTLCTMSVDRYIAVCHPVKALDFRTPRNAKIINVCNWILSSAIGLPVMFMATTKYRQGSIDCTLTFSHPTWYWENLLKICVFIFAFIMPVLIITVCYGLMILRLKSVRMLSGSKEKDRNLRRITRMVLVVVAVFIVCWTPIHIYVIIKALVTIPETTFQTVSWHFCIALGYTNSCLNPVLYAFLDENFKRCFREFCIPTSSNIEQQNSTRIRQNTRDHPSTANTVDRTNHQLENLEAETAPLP
Description: Displacement of [3H]diprenorphine from mu opioid receptor in HEK293 cells at 10 uM after 120 mins relative to control

[4] = target: Kappa-type opioid receptor (Cricetulus griseus) (UniProt G3HZR5); test: Displacement of [3H]U-69593 from kappa opioid receptor in CHO cells at 1 uM after 120 mins relative to control; format: cell-based
[5] = species: Rattus norvegicus; test: Inhibition of UDP-glucuronosyltransferase in Sprague-Dawley rat liver microsomes assessed as morphine conversion to M3G up to 50 uM after 30 mins by HPLC analysis relative to control
[6] = target: Mu-type opioid receptor (Homo sapiens) (UniProt P35372); conditions: HEK293, at 1 µM
Description: Displacement of [3H]diprenorphine from mu opioid receptor in HEK293 cells at 1 uM after 120 mins relative to control

[7] = target: Delta-type opioid receptor (Cricetulus griseus) (UniProt G3H1Y1); test: Displacement of [3H]DADLE from delta opioid receptor in CHO cells at 1 uM after 120 mins relative to control; format: cell-based
Chain of Delta-type opioid receptor (Cricetulus griseus) (G3H1Y1 as listed by the source): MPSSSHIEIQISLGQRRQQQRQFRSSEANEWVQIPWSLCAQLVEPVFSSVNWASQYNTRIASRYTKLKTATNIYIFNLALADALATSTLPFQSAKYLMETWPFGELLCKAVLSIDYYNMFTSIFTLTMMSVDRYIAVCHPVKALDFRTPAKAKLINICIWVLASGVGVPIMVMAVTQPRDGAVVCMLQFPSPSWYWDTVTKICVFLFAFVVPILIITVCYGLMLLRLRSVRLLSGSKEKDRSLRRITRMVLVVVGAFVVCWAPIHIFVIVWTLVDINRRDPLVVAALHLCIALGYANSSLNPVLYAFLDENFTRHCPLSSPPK

[8] = species: Rattus norvegicus; test: Inhibition of UDP-glucuronosyltransferase in Sprague-Dawley rat liver microsomes assessed as morphine conversion to M6G after 30 mins by HPLC analysis
[9] = target: Delta-type opioid receptor (Cricetulus griseus) (UniProt G3H1Y1); test: Displacement of [3H]DADLE from delta opioid receptor in CHO cells at 10 uM after 120 mins relative to control; format: cell-based
[10] = Inhibition of UDP-glucuronosyltransferase in Sprague-Dawley rat hepatocytes assessed as morphine conversion to M3G incubated for 72 hrs prior to substrate addition measured after 2 hrs by HPLC analysis; format: cell-based; conditions: Hepatocyte
[11] = species: Rattus norvegicus; test: Activity at UDP-glucuronosyltransferase in Sprague-Dawley rat liver microsomes assessed as morphine conversion to M3G at 2.5 uM by Michaelis-Menten plot analysis
[12] = Clearance in Sprague-Dawley rat liver microsomes at 2.5 uM; format: ADME; conditions: read-out: CLH
[13] = species: Rattus norvegicus; test: Activity at UDP-glucuronosyltransferase in Sprague-Dawley rat liver microsomes assessed as morphine conversion to M3G at 5 uM by Michaelis-Menten plot analysis
[14] = Clearance in Sprague-Dawley rat liver microsomes at 50 uM; format: ADME; conditions: read-out: CLH
[15] = Clearance in Sprague-Dawley rat liver microsomes at 1 uM; format: ADME; conditions: read-out: CLH
[16] = species: Rattus norvegicus; test: Activity at UDP-glucuronosyltransferase in Sprague-Dawley rat liver microsomes assessed as morphine conversion to M3G at 1 uM by Michaelis-Menten plot analysis
[17] = species: Rattus norvegicus; test: (§1) Inhibition of UDP-glucuronosyltransferase in Sprague-Dawley rat liver microsomes assessed as morphine conversion to M3G after 30 mins by HPLC analysis
[18] = as §1
[19] = species: Rattus norvegicus; test: Activity at UDP-glucuronosyltransferase in Sprague-Dawley rat liver microsomes assessed as morphine conversion to M3G at 50 uM by Michaelis-Menten plot analysis
[20] = species: Rattus norvegicus; test: Activity at UDP-glucuronosyltransferase in Sprague-Dawley rat liver microsomes assessed as morphine conversion to M3G at 10 uM by Michaelis-Menten plot analysis
[21] = species: Rattus norvegicus; test: Competitive inhibition of UDP-glucuronosyltransferase in Sprague-Dawley rat liver microsomes assessed as morphine conversion to M3G up to 5 uM by Lineweaver-Burk plot analysis
[22] = Clearance in Sprague-Dawley rat liver microsomes at 5 uM; format: ADME; conditions: read-out: CLH
[23] = Clearance in Sprague-Dawley rat liver microsomes at 10 uM; format: ADME; conditions: read-out: CLH
[24] = test system: Hepatocyte; test: Inhibition of UDP-glucuronosyltransferase in Sprague-Dawley rat hepatocytes assessed as morphine conversion to M3G at 5 to 40 uM incubated for 72 hrs prior to substrate addition measured after 2 hrs by HPLC analysis; format: cell-based

Chain of Kappa-type opioid receptor (Cricetulus griseus) (G3HZR5 as listed by the source): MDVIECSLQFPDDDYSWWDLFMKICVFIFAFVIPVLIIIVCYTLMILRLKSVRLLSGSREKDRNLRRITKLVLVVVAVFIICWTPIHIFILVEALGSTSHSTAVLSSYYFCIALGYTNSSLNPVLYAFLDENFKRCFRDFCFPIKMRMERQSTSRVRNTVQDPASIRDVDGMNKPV

Q: For `COc1ccc2c3c1O[C@H]1[C@@H](OC(C)=O)CC[C@H]4[C@@H](C2)N(C)CC[C@@]341`, which inhibition [1] is on record?
A: The inhibition was 13%.

Q: What about the inhibition [2] of the same compound?
A: Its inhibition is “inactive”.

Q: And the inhibition [3]?
A: Its inhibition is 5%.

Q: And the inhibition [4]?
A: The inhibition was 3%.

Q: And the inhibition [5]?
A: Its inhibition is “Active”.

Q: What about the inhibition [6] of the same compound?
A: Its inhibition is -2%.

Q: And the inhibition [7]?
A: Its inhibition is -10%.

Q: And the inhibition [8]?
A: Its inhibition is “inactive”.

Q: With `COc1ccc2c3c1O[C@H]1[C@@H](O)CC[C@H]4[C@@H](C2)N(C)CC[C@@]341` as the compound, how does the inhibition [1] read?
A: Its inhibition is 51%.

Q: What about the inhibition [2] of the same compound?
A: Its inhibition is “inactive”.

Q: And the inhibition [9]?
A: The inhibition was 24%.

Q: And the inhibition [3]?
A: Its inhibition is 40%.

Q: What about the inhibition [4] of the same compound?
A: The inhibition was 4%.

Q: What about the inhibition [5] of the same compound?
A: The inhibition was 40%.

Q: And the inhibition [6]?
A: Its inhibition is 17%.

Q: And the inhibition [7]?
A: Its inhibition is 7%.

Q: What about the inhibition [8] of the same compound?
A: Its inhibition is “inactive”.

Q: With `CN1CC[C@]23c4c5ccc(O)c4O[C@H]2[C@@H](O)C=C[C@H]3[C@H]1C5` as the compound, how does the inhibition [1] read?
A: Its inhibition is 100%.

Q: And the inhibition [9]?
A: Its inhibition is 95%.

Q: What about the inhibition [4] of the same compound?
A: Its inhibition is 95%.

Q: And the inhibition [7]?
A: Its inhibition is 72%.

Q: Which IC50 [10] does the source give for `COc1ccc2c3c1O[C@H]1[C@@H](O)C=C[C@H]4[C@@H](C2)N(C)CC[C@@]341` [CODEINE] here?
A: Its IC50 is 20.9 µM.

Q: And the Km [11]?
A: The Km was 0.41 µM.

Q: And the Vmax [11]?
A: The Vmax was 12.4 nmol/min/mg.

Q: What about the microsomal CLint at 2.5 µM [12] of the same compound?
A: The microsomal CLint at 2.5 µM was 31.1 µL/min/mg.

Q: What about the Km [13] of the same compound?
A: The Km was 0.43 µM.

Q: And the Vmax [13]?
A: The Vmax was 8.04 nmol/min/mg.

Q: And the microsomal CLint at 50 µM [14]?
A: The microsomal CLint at 50 µM was 8.35 µL/min/mg.

Q: What about the microsomal CLint at 1 µM [15] of the same compound?
A: The microsomal CLint at 1 µM was 48 µL/min/mg.

Q: And the Km [16]?
A: Its Km is 0.26 µM.

Q: What about the Vmax [16] of the same compound?
A: The Vmax was 12.5 nmol/min/mg.

Q: And the inhibition [17]?
A: The inhibition was “Dose-dependent effect”.

Q: What about the IC50 [18] of the same compound?
A: The IC50 was 4.32 µM.

Q: And the Ki [18]?
A: The Ki was 6.9 µM.

Q: What about the Km [19] of the same compound?
A: Its Km is 0.48 µM.

Q: What about the Vmax [19] of the same compound?
A: The Vmax was 4.06 nmol/min/mg.

Q: And the Km [20]?
A: The Km was 0.37 µM.

Q: And the Vmax [20]?
A: The Vmax was 4.41 nmol/min/mg.

Q: What about the inhibition [21] of the same compound?
A: The inhibition was “inactive”.

Q: And the microsomal CLint at 5 µM [22]?
A: The microsomal CLint at 5 µM was 18.6 µL/min/mg.

Q: What about the microsomal CLint at 10 µM [23] of the same compound?
A: Its microsomal CLint at 10 µM is 11.9 µL/min/mg.

Q: And the inhibition [8]?
A: Its inhibition is “inactive”.

Q: Which inhibition [1] does the source give for `CCCCCCCCCCCC(=O)O[C@H]1C=C[C@H]2[C@H]3Cc4ccc(OC)c5c4[C@@]2(CCN3C)[C@H]1O5` here?
A: The inhibition was 40%.

Q: What about the inhibition [9] of the same compound?
A: The inhibition was 13%.

Q: What about the inhibition [3] of the same compound?
A: The inhibition was 12%.

Q: And the inhibition [4]?
A: Its inhibition is 8%.

Q: What about the inhibition [5] of the same compound?
A: Its inhibition is “Active”.

Q: What about the inhibition [6] of the same compound?
A: The inhibition was 0%.

Q: What about the inhibition [7] of the same compound?
A: Its inhibition is -7%.

Q: And the inhibition [8]?
A: The inhibition was “inactive”.

Q: With `COc1ccc2c3c1O[C@H]1[C@@H](OC(=O)C(C)(C)C)C=C[C@H]4[C@@H](C2)N(C)CC[C@@]341` as the compound, how does the inhibition [1] read?
A: Its inhibition is 42%.

Q: And the Km [11]?
A: Its Km is 0.22 µM.

Q: What about the Vmax [11] of the same compound?
A: Its Vmax is 6.28 nmol/min/mg.

Q: What about the microsomal CLint at 2.5 µM [12] of the same compound?
A: Its microsomal CLint at 2.5 µM is 29.1 µL/min/mg.

Q: What about the Km [13] of the same compound?
A: The Km was 0.36 µM.

Q: What about the Vmax [13] of the same compound?
A: The Vmax was 4.53 nmol/min/mg.

Q: What about the microsomal CLint at 50 µM [14] of the same compound?
A: Its microsomal CLint at 50 µM is 6.54 µL/min/mg.

Q: What about the microsomal CLint at 1 µM [15] of the same compound?
A: The microsomal CLint at 1 µM was 52.7 µL/min/mg.

Q: What about the inhibition [9] of the same compound?
A: The inhibition was 90%.

Q: What about the inhibition [24] of the same compound?
A: Its inhibition is “Active”.

Q: And the Km [16]?
A: The Km was 0.13 µM.

Q: What about the Vmax [16] of the same compound?
A: Its Vmax is 7.03 nmol/min/mg.

Q: And the inhibition [17]?
A: The inhibition was “Dose-dependent effect”.

Q: And the IC50 [18]?
A: The IC50 was 2.27 µM.

Q: What about the Ki [18] of the same compound?
A: The Ki was 2.56 µM.

Q: And the inhibition [3]?
A: Its inhibition is 38%.

Q: And the Km [19]?
A: Its Km is 0.62 µM.

Q: What about the Vmax [19] of the same compound?
A: Its Vmax is 3.95 nmol/min/mg.

Q: And the inhibition [4]?
A: The inhibition was 6%.

Q: And the Km [20]?
A: Its Km is 0.72 µM.

Q: And the Vmax [20]?
A: Its Vmax is 4.63 nmol/min/mg.

Q: And the inhibition [6]?
A: Its inhibition is 20%.

Q: What about the microsomal CLint at 5 µM [22] of the same compound?
A: The microsomal CLint at 5 µM was 12.7 µL/min/mg.

Q: And the microsomal CLint at 10 µM [23]?
A: Its microsomal CLint at 10 µM is 6.88 µL/min/mg.

Q: And the inhibition [7]?
A: Its inhibition is 57%.

Q: What about the inhibition [8] of the same compound?
A: Its inhibition is “inactive”.

Q: With `COc1ccc2c3c1O[C@H]1[C@@H](OC(C)=O)C=C[C@H]4[C@@H](C2)N(C)CC[C@@]341` as the compound, how does the inhibition [1] read?
A: Its inhibition is 66%.

Q: And the Km [11]?
A: The Km was 0.41 µM.

Q: What about the Vmax [11] of the same compound?
A: The Vmax was 10.1 nmol/min/mg.

Q: And the microsomal CLint at 2.5 µM [12]?
A: The microsomal CLint at 2.5 µM was 24.7 µL/min/mg.

Q: And the Km [13]?
A: Its Km is 0.56 µM.

Q: And the Vmax [13]?
A: The Vmax was 7.92 nmol/min/mg.

Q: What about the microsomal CLint at 50 µM [14] of the same compound?
A: The microsomal CLint at 50 µM was 5.97 µL/min/mg.

Q: What about the microsomal CLint at 1 µM [15] of the same compound?
A: Its microsomal CLint at 1 µM is 37.8 µL/min/mg.

Q: And the inhibition [9]?
A: Its inhibition is 60%.

Q: And the inhibition [24]?
A: Its inhibition is “Active”.

Q: And the Km [16]?
A: The Km was 0.26 µM.

Q: What about the Vmax [16] of the same compound?
A: Its Vmax is 9.74 nmol/min/mg.

Q: And the inhibition [17]?
A: Its inhibition is “Dose-dependent effect”.

Q: And the IC50 [18]?
A: Its IC50 is 3.25 µM.

Q: And the Ki [18]?
A: Its Ki is 5.17 µM.

Q: What about the inhibition [3] of the same compound?
A: The inhibition was 43%.

Q: What about the Km [19] of the same compound?
A: The Km was 0.69 µM.

Q: And the Vmax [19]?
A: Its Vmax is 4.01 nmol/min/mg.

Q: And the inhibition [4]?
A: Its inhibition is 25%.

Q: And the Km [20]?
A: The Km was 0.35 µM.

Q: And the Vmax [20]?
A: Its Vmax is 3.31 nmol/min/mg.

Q: What about the inhibition [6] of the same compound?
A: The inhibition was 19%.

Q: What about the inhibition [21] of the same compound?
A: The inhibition was “inactive”.

Q: And the microsomal CLint at 5 µM [22]?
A: The microsomal CLint at 5 µM was 25 µL/min/mg.

Q: And the microsomal CLint at 10 µM [23]?
A: The microsomal CLint at 10 µM was 9.38 µL/min/mg.

Q: What about the inhibition [7] of the same compound?
A: The inhibition was 18%.

Q: What about the inhibition [8] of the same compound?
A: The inhibition was “inactive”.
